In patent US20220009914A1, “Analogs of Nitrofuran Antibiotics to Combat Resistance” (The Trustees of Indiana University, priority 2020, published 2022):
Read-outs that look alike come from different tables or passages of the source.

Tests used:
[1] = molecular target: T1, E. coli GroEL/ES (Escherichia coli, UniProt P0A6F5); test: GroEL/ES-mediated dRho refolding assay; type: biochemical
T1 construct: made in house; host or cells: GroEL in NEB 5-alpha E. coli; GroES in E. coli BL21 (DE3)
Experimental: Evaluating compounds for inhibition in the GroEL/ES-mediated dRho refolding assay. Reagent preparation: For this assay, five primary reagent stocks were prepared: 1) GroEL/ES-dRho binary complex stock; 2) ATP initiation stock; 3) thiocyanate enzymatic assay stock; 4) formaldehyde quench stock; 5) ferric nitrate reporter stock. Denatured rhodanese (dRho) was prepared by 3-fold dilution of rhodanese (Roche product #R^1756, diluted to 10 mg/mL with H2O) with denaturant buffer (12 M Urea, 50 mM Tris-HCl, pH 7.4, and 10 mM DTT). Rhodanese was completely denatured by incubating at room temperature for >45 min. The binary complex solution was prepared by slowly adding the dRho stock to a stirring stock of concentrated GroEL in modified folding buffer (50 mM Tris-HCl, pH 7.4, 50 mM KCl, 10 mM MgCl2, 5 mM Na2S2O3, and 1 mM DTT). The solution was centrifuged at 16,000×g for 5 minutes, and the supernatant was collected and added to a solution of GroES in modified folding buffer to give final protein concentrations of 100 nM GroEL, 120 nM GroES, and 80 nM dRho. The binary complex stock was prepared immediately prior to use. For the ATP initiation stock, ATP solid was diluted into modified folding buffer to a final concentration of 2.0 mM. The thiocyanate enzymatic assay stock was prepared to contain 70 mM KH2PO4, 80 mM KCN, and 80 mM Na2S2O3 in water. The formaldehyde quench solution contained 30% formaldehyde in water.
Assay Protocol: First, 10 μL aliquots of the GroEL/ES-dRho complex stock were dispensed into clear, flat-bottom 384-well polystyrene plates. […] After incubating for 40 minutes at 37° C. for the refolding cycle, 30 μL of the thiocyanate enzymatic assay stock was added and incubated for 60 min at room temperature for the refolded rhodanese enzymatic reporter reaction. The reporter reaction was quenched by adding 10 μL of the formaldehyde quench stock, and then 40 μL of the ferric nitrate reporter stock was added to quantify the amount of thiocyanate produced during the enzymatic reporter reaction, which is proportional to the amount of dRho refolded by GroEL/ES. After incubating at room temperature for 15 min, the absorbance by Fe(SCN)3 was measured at 460 nm using a Molecular Devices SpectraMax Plus384 microplate reader. A second set of baseline control plates were prepared analogously, but without GroEL/ES-dRho protein binary solution, to correct for possible interference from compound absorbance or turbidity. […] Results presented represent the averages of IC50 values obtained from at least four replicates.
Evaluating compounds for inhibition in the GroEL/ES-mediated dRho refolding assay. All compounds were evaluated for inhibiting E. coli GroEL/ES-mediated refolding of the denatured Rho reporter enzyme as per our previously reported procedure. Results presented represent the averages of IC50 values obtained from at least four replicates.

[2] = test system: Staphylococcus aureus strain Seattle 1945 (ATCC #25923); test: bacterial proliferation assay, S. aureus; type: cell-based
Experimental: (§1) All compounds were evaluated for inhibiting the proliferation of E. coli and each of the ESKAPE bacteria. Results presented represent the averages of EC50 values obtained from at least four replicates. Evaluating compounds for inhibition of bacterial cell proliferation.
(§2) Growth Media: E. coli were grown with LB medium and all ESKAPE bacteria were grown in Brain Heart Infusion (BHI) medium (Becton, Dickinson and Company), with all liquid cultures supplemented with 25 mg/L Ca^2+ and 12.5 mg/L Mg^2+ to mimic physiological free concentrations of these cations. A 10 mg/mL Ca^2+ stock solution was prepared by dissolving 1.84 g of CaCl2.2H2O in 50 mL of deionized water, and a 10 mg/mL Mg^2+ stock solution was prepared by dissolving 4.18 g of MgCl2.6H2O in 50 mL deionized water—filter sterilized using 0.2 μm cellulose-acetate filters. 2.5 mL of the sterile 10 mg/mL Ca^2+ stock and 1.25 mL of the sterile 10 mg/mL Mg^2+ stock solutions were added per 1 L of autoclaved LB or BHI media to obtain 25 mg/L Ca^2+ and 12.5 mg/L Mg^2+ ions, respectively.
(§3) General Assay Protocol: Stock bacterial cultures were streaked onto LB or BHI agar plates and grown overnight at 37° C. Fresh aliquots of cation supplemented media were inoculated with single bacterial colonies and the cultures were grown overnight at 37° C. with shaking (240 rpm). The following morning, cultures were diluted 10-fold into fresh media and grown at 37° C. until bacteria had reached mid-log phase growth (OD600˜0.4-0.6). The cultures were then diluted into fresh media to achieve final OD600 readings of 0.017. Aliquots of these diluted cultures (30 μL) were added to clear, flat-bottom 384-well polystyrene plates that were previously stamped with 0.5 μL of test compounds in 20 μL of media (yielding initial OD600=0.01 bacterial cultures). All compounds were tested in dose-response with concentration ranges during the proliferation assays from 100 μM to 46 nM (3-fold dilution series). A second set of baseline control plates were prepared analogously, but without any bacteria added, to correct for possible compound absorbance and/or precipitation. […] Plates were then read at 600 nm using a Molecular Devices SpectraMax Plus384 microplate reader. […] Results presented represent the averages of EC50 values obtained from at least four replicates.
(§4) Evaluating analogs for inhibiting the growth of E. coli and the ESKAPE bacteria. Analogs were initially tested for antibacterial efficacy against representative strains of antibiotic-sensitive E. coli and the ESKAPE bacteria. To determine compound efficacy, bacterial proliferation assays were carried out in liquid media culture supplemented with physiological concentrations of free calcium and magnesium cations. For these assays, bacterial cultures (OD600=0.01) were exposed to test compounds in 8-point, 3-fold dilution series (100 μM to 46 nM concentration range), in 384-well plates. After addition of compounds to cultures, the plates were sealed with Breathe-Easy gas permeable membranes and allowed to grow to mid-log phase (OD600˜0.4-0.6), whereupon final OD600 readings were taken to assess for bacterial growth and inhibition.

[3] = test system: Enterobacter cloacae strain CDC 442-68 (ATCC #13047); test: bacterial proliferation assay, E. cloacae; type: cell-based; conditions: ATCC13047, read-out: Bacterial Proliferation EC50 E. cloacae
Experimental: as §1, §2, §3, §4

[4] = test system: Enterococcus faecium strain NCTC 7171 (ATCC #19434); test: bacterial proliferation assay, E. faecium; type: cell-based; conditions: read-out: Bacterial Proliferation EC50 E. faecium
Experimental: as §1, §2, §3, §4

[5] = Staphylococcus aureus, ATCC25923; read-out: Bacterial Proliferation EC50 S. aureus

T1 sequence (P0A6F5 2-548): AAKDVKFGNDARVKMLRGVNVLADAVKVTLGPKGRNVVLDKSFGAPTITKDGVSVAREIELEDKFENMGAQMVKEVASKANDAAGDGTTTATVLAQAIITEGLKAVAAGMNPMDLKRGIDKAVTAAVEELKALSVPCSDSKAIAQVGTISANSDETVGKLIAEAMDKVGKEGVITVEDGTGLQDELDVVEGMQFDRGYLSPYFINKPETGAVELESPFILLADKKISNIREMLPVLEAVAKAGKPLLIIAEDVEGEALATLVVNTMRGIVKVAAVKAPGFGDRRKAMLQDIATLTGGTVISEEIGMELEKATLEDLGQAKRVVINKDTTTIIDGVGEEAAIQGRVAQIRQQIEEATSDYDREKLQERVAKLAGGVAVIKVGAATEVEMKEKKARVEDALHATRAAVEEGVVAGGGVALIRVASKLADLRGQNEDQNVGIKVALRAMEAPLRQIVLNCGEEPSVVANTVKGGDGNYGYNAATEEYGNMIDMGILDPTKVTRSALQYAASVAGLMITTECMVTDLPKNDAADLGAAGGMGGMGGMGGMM

`COc1ccc(C(=O)N/N=C/c2ccccc2)cc1` [Compound 37, N′-benzylidene-4-methoxybenzohydrazide] gave an IC50 [1] of over 250 µM, an EC50 [2, 5] of over 100 µM and an EC50 [3] of over 100 µM. The EC50 [4] was over 100 µM.

`COc1ccc(C(=O)NN)cc1` [Compound 42, reference compound] gave an IC50 [1] of over 250 µM, an EC50 [2, 5] of over 100 µM and an EC50 [3] of over 100 µM. For the same molecule, the EC50 [4] was over 100 µM.

`O=C(N/N=C/c1ccc([N+](=O)[O-])o1)c1ccc(NS(=O)(=O)c2cccs2)cc1` [Compound 26, N-(4-(2-((5-nitrofuran-2-yl)methylene)hydrazine-1-carbonyl)phenyl)thiophene-2-sulfonamide] was tested, and the IC50 [1] was 62 µM, the EC50 [2, 5] was 11 µM and the EC50 [3] was over 100 µM. It also gave an EC50 [4] of 11 µM.

Work on `COc1ccc(C(=O)N/N=C/c2ccc([N+](=O)[O-])o2)cc1` [Compound 20, 4-methoxy-N′-((5-nitrofuran-2-yl)methylene)benzohydrazide] yielded an IC50 [1] of 108 µM, an EC50 [2, 5] of 8.1 µM and an EC50 [3] of over 100 µM. For the same molecule, the EC50 [4] was 22 µM.

Molecule `O=C(N/N=C/c1ccc([N+](=O)[O-])o1)c1ccccc1` [Compound 18, N′-((5-nitrofuran-2-yl)methylene)benzohydrazide] has an IC50 [1] of 100 µM, an EC50 [2, 5] of 10 µM and an EC50 [3] of over 100 µM. It also gave an EC50 [4] of 31 µM.

`O=C1CN(/N=C/c2ccc(O)c3ncccc23)C(=O)N1` [Compound 2, 1-(((8-hydroxyquinolin-5-yl)methylene)amino)imidazolidine-2,4-dione] gave an IC50 [1] of 86.4 µM, an EC50 [2, 5] of 37 µM and an EC50 [3] of over 100 µM. It also gave an EC50 [4] of over 100 µM.

For `O=C(N/N=C/c1ccc(O)c2ccccc12)c1ccccc1` [Compound 30, N′-((4-hydroxynaphthalen-1-yl)methylene)benzohydrazide], the IC50 [1] was 216 µM, the EC50 [2, 5] was 88 µM and the EC50 [3] was over 100 µM. It also gave an EC50 [4] of over 100 µM.

`COc1ccc(C(=O)N/N=C/c2ccc(O)c3ccccc23)cc1` [Compound 29, N′-((4-hydroxynaphthalen-1-yl)methylene)-4-methoxybenzohydrazide] showed an IC50 [1] of 117 µM, an EC50 [2, 5] of over 100 µM and an EC50 [3] of over 100 µM. For the same molecule, the EC50 [4] was over 100 µM.

Molecule `O=C(N/N=C/c1cccc2ccccc12)c1ccccc1` [Compound 34, N′-(naphthalen-1-ylmethylene)benzohydrazide] has an IC50 [1] of 209 µM, an EC50 [2, 5] of over 100 µM and an EC50 [3] of over 100 µM. It also gave an EC50 [4] of over 100 µM.

Molecule `CCN(CC)S(=O)(=O)c1cccc(C(=O)N/N=C/c2ccc(O)c3ncccc23)c1` [Compound 12, N,N-diethyl-3-(2-((8-hydroxyquinolin-5-yl)methylene)hydrazine-1-carbonyl)benzenesulfonamide] has an IC50 [1] of 10 µM, an EC50 [2, 5] of over 100 µM and an EC50 [3] of over 100 µM. The EC50 [4] was over 100 µM.

`O=C(N/N=C/c1ccc(O)c2ncccc12)c1cccc(Oc2ccccc2)c1` [Compound 11, N′-((8-hydroxyquinolin-5-yl)methylene)-3-phenoxybenzohydrazide] was tested, and the IC50 [1] was 7.8 µM, the EC50 [2, 5] was over 100 µM and the EC50 [3] was over 100 µM. It also gave an EC50 [4] of over 100 µM.

In the case of `O=[N+]([O-])c1ccc(O)c2ncccc12` [Nitroxoline, reference compound], the IC50 [1] is reported as 6.4 µM, the EC50 [2, 5] is reported as 9.5 µM and the EC50 [3] is reported as 6.6 µM. It also gave an EC50 [4] of 18 µM.

`O=C1CN(/N=C/c2ccc([N+](=O)[O-])o2)C(=O)N1` [Nitrofurantoin, reference compound] gave an IC50 [1] of over 250 µM, an EC50 [2, 5] of 27 µM and an EC50 [3] of 36 µM. It also gave an EC50 [4] of 38 µM.

`O=C(N/N=C/c1ccc([N+](=O)[O-])o1)c1ccc(O)cc1` [Nifuroxazide, reference compound] showed an IC50 [1] of 133 µM, an EC50 [2, 5] of 16 µM and an EC50 [3] of 54 µM. For the same molecule, the EC50 [4] was 8.1 µM.

With `O=C(N/N=C/c1ccc(O)c2ncccc12)c1ccc(Cl)s1` [Compound 4, 5-chloro-N′-((8-hydroxyquinolin-5-yl)methylene)thiophene-2-carbohydrazide] the IC50 [1] was 1.4 µM, the EC50 [2, 5] was 84 µM and the EC50 [3] was over 100 µM. For the same molecule, the EC50 [4] was 70 µM.

Molecule `CN(C)c1ccc(C(=O)N/N=C/c2ccc([N+](=O)[O-])o2)cc1` [Compound 21, 4-(dimethylamino)-N′-((5-nitrofuran-2-yl)methylene)benzohydrazide] has an IC50 ([1]; read-out: GroEL/ES-dRho Refolding IC50) of 26 µM, an EC50 [2, 5] of 34 µM and an EC50 [3] of over 100 µM. The EC50 [4] was over 100 µM.

In the case of `O=C(N/N=C/c1ccc(O)c2ncccc12)c1ccc(O)cc1` [Compound 7, 4-hydroxy-N′-((8-hydroxyquinolin-5-yl)methylene)benzohydrazide], the IC50 [1] is reported as 9 µM, the EC50 [2, 5] is reported as 48 µM and the EC50 [3] is reported as 97 µM. The EC50 [4] was over 100 µM.

For `O=C(N/N=C/c1ccc([N+](=O)[O-])o1)c1cccc(Oc2ccccc2)c1` [Compound 24, N′-((5-nitrofuran-2-yl)methylene)-3-phenoxybenzohydrazide], the IC50 [1] was 50 µM, the EC50 [2, 5] was 3.5 µM and the EC50 [3] was over 100 µM. The EC50 [4] was 11 µM.

`O=C(N/N=C/c1ccc(O)c2ncccc12)c1ccc(NS(=O)(=O)c2ccc(Br)cc2)cc1` [Compound 14, 4-bromo-N-(4-(2-((8-hydroxyquinolin-5-yl)methylene)hydrazine-1-carbonyl)phenyl)benzenesulfonamide] was tested, and the IC50 [1] was 1.8 µM, the EC50 ([2]; Staphylococcus aureus, ATCC25923, read-out: Bacterial Proliferation EC50 S. aureus) was over 100 µM and the EC50 [3] was over 100 µM. For the same molecule, the EC50 [4] was over 100 µM.

Molecule `CN(C)c1ccc(C(=O)N/N=C/c2ccc(O)c3ncccc23)cc1` [Compound 8, 4-(dimethylamino)-N′-((8-hydroxyquinolin-5-yl)methylene)benzohydrazide] has an IC50 [1] of 7.9 µM, an EC50 [2, 5] of 99 µM and an EC50 [3] of over 100 µM. It also gave an EC50 [4] of over 100 µM.

Molecule `O=C(N/N=C/c1ccc([N+](=O)[O-])o1)c1ccc(NS(=O)(=O)c2ccc(Br)cc2)cc1` [Compound 27, 4-bromo-N-(4-(2-((5-nitrofuran-2-yl)methylene)hydrazine-1-carbonyl)phenyl)benzenesulfonamide] has an IC50 [1] of 59 µM, an EC50 [2, 5] of over 100 µM and an EC50 [3] of over 100 µM. It also gave an EC50 [4] of over 100 µM.
